Assay in all cases: CellTiter-Glo in vitro cell proliferation assay, Example 8
What all share (assay type): cell-based, Human

The test system of test [1] is A2780 cells. The following applies: A2780, Ovarian, read-out: Mean IC50. How it is done: (§1) In this Example, in vitro cell proliferation assays were performed using: (1) Human Myeloma tumor cell lines; (2) Human Lymphoma tumor cell lines; (3) Solid Human tumor cell lines; and (4) Parental, Lenalidomide resistant and Bortezomib resistant Jeko-1 Mantle cell Lymphoma tumor cell lines. The compounds tested were three diharmaline compounds, namely the 518B562 (or simply 562), 560, and 561 compounds. In addition, a monoharmaline product designated as 518F014 was also tested. This monoharmaline product had the following structure:
(§2) Each proliferation assay was carried out as follows. The test cells were plated in growth media using a 384-well microtiter plate at 50 μL volume. The cells were incubated for 24 hours at 37° C. in a humidified incubator. After 24 hours of incubation, the test compounds were added to the test wells in DSMO solvent, at concentrations ranging from 0.0075-100 μM. Control wells received equal volumes of DSMO, without compound. Following drugging, the cells were incubated for 72 hours at 37° C. in a humidified incubator. After this exposure, 100 μL of a 1:1 mixture of sterile water and CellTiter-Glo® reagent (Promega) was added to each well. The plates were then incubated for 60 minutes at room temperature, followed by recording the luminescence value of each well using a luminometer as a measure of cell proliferation.

Test [2] concerns ASPC-1 cells. The following applies: ASPC-1, Pancreatic, read-out: Mean IC50. How it is done: as §1, §2
Test [3] has as its system DOHH-2 cells. The following applies: DoHH-2, GCB-DLBCL, read-out: Mean IC50. The method, then: as §1, §2
Test [4] relates to FaDu cells. The following applies: H&N - SC, read-out: Mean IC50. The method, then: as §1, §2
Test [5] deals with JIM1 cells. The following applies: JIM1, HMCL, read-out: Mean IC50. How it is done: as §1, §2
Test [6] concerns KMM-1 cells. The following applies: KMM-1, HMCL-A, read-out: Mean IC50. How it is done: as §1, §2
Test [7] concerns L363 cells. The note with it: L363, PCL/MM, read-out: Mean IC50. The method, then: as §1, §2
Test [8] deals with MIA PaCa-2 cells. The note with it: MIA PaCa-2, Pancreatic, read-out: Mean IC50. How it is done:
as §1, §2

Test [9] has as its system A2780CP cells. The following applies: Ovarian, read-out: Mean IC50. How it is done:
as §1, §2

The subject of test [10] is AN3CA cells. The note with it: Endometrial, read-out: Mean IC50. The method, then:
as §1, §2

The test system of test [11] is BxPC-3 cells. The note with it: BxPC-3, Pancreatic; read-out: Mean IC50. How it is done: as §1, §2
For test [12], the system named is KMS-34 cells. The note with it: KMS-34, HMCL-B; read-out: Mean IC50. How it is done: as §1, §2
Test [13] concerns MDA-MB-231 cells. The following applies: MDA-MB-231, TNBC; read-out: Mean IC50. The method, then:
as §1, §2

For test [14], the system named is MDA-MB-468 cells. The following applies: MDA-MB-468, TNBC; read-out: Mean IC50. How it is done:
as §1, §2

The subject of test [15] is MOLP-8 cells. The note with it: MOLP-8, MM IgD; read-out: Mean IC50. How it is done: as §1, §2
The test system of test [16] is OCI-LY3 cells. The following applies: OCI-LY3, ABC-DLBCL; read-out: Mean IC50. The method, then:
as §1, §2

In test [17] the test system is SiHA cells. The following applies: Cervical - SC, read-out: Mean IC50. The method, then: as §1, §2
Test [18] deals with RPMI-8226 cells. The following applies: RPMI-8226, HMM. How it is done:
as §2
In this example, different cell lines were subjected to in vitro cell proliferation assays as described in Example 8. In particular, the cell lines are identified in the following Table 17, and the tissue types were: Pancreatic; Endometrial; Triple-Negative Breast Cancer (TNBC); Non-Small-Cell Lung Carcinoma (NSCLC); Ovarian; Renal Cell Carcinoma (RCC); Cervical-Squamous Cell; […] (H&N-Squamous Cell); Germinal Center B Cell-Like Novo Diffuse Large B-Cell Lymphoma (GCB-DLBCL); Activated B-Cell—Diffuse Large B Cell Lymphoma (ABC-DLBCL); Human Myeloma; Human Myeloma Cell Line Lymphocyte-Like; Human Myeloma Cell Line Lymphocyte-Like Myeloma Pleural Effusion Infiltration; Human Multiple Myeloma; Plasma Cell Leukemia/Multiple Myeloma Epstein-Barr Nuclear Antigen-Negative (EBNA-Negative) and to Express mRNA for Proto-Oncogene B-Cell Lymphoma 2 (BCL2); Multiple Myeloma from Peripheral Blood Type IgD Lmabda.

Test [19] concerns A498 cells. The following applies: A498, RCC; read-out: Mean IC50. How it is done:
as §1, §2

Test [20] concerns H1650 (EGFR mut) cells. The following applies: NSCLC, read-out: Mean IC50. The method, then: as §1, §2
Test [21] has as its system H1975 (EGFR mut) cells. The note with it: NSCLC, read-out: Mean IC50. How it is done: as §1, §2
Test [22] deals with HCC70 cells. The note with it: HCC70, TNBC; read-out: Mean IC50. The method, then:
as §1, §2

Test [23] relates to HEC-1a cells. The following applies: Endometrial, read-out: Mean IC50. How it is done:
as §1, §2

The text below walks through data of patent US12129265B2, “Therapeutic agents and uses thereof” (Ankh Life Sciences Limited, priority 2020, dated 2024).

Like-named read-outs stand apart in the source and are kept apart here.

Turning to `COc1cc(C2CC3(CC4(NCCc5sccc54)C2C2=NCCc4sccc42)NCCc2sccc23)ccc1O` (stereo not shown) [HRM05], the IC50 (commonly the concentration that gives 50% inhibition) in [1] (Homo sapiens) is 15.9 µM; in test [2] (Homo sapiens, ASPC1), 20.2 µM; in test [3] (Homo sapiens) it was 17.6 µM; in test [4] (Homo sapiens), 14 µM; in [5] (Homo sapiens), 17.6 µM; in test [6] (Homo sapiens) it was 12.5 µM. In addition, the IC50 in [7] (Homo sapiens, L-363) is 13.7 µM; in test [8] (Homo sapiens) it was 12.2 µM.

Take `COc1ccc2c3c([nH]c2c1)C(CC(CC1=NCCc2c1[nH]c1cc(OC)ccc21)c1ccc(OC(C)=O)c(OC)c1)=NCC3` [compound 6]: the IC50 was 70.7 µM in test [9]; 21.4 µM in test [10]; 15.8 µM in [11]; 6.91 µM in test [3]; 15.8 µM in [4]; 18 µM in [5]. Besides, the IC50 in [6] stood at 16.9 µM; in [12] it was 11 µM; in [7] it was 16.3 µM; in [13], 60.5 µM; in test [14] it was 14.5 µM; in [8], 13.6 µM. For the same molecule, the IC50 in test [15] stood at 11.5 µM; in test [16], 11.3 µM; in test [17], 74.8 µM; in test [18], 10.3 µM.

With `COc1ccc(C(CC2=NCCc3c2[nH]c2cc(OC)ccc32)CC2=NCCc3c2[nH]c2cc(OC)ccc32)c(O)c1` [compound 8], the IC50 in test [1] was 18.7 µM; in test [9], 49.8 µM; in [19], 78.7 µM; in test [10] it was 20.2 µM; in test [2], 55.6 µM; in test [11], 21.9 µM. The IC50 in test [3] was determined as 6.37 µM; in test [4] it was 16.1 µM; in [20], 59.9 µM; in test [21], 55.1 µM; in test [22], 24.9 µM; in [23], 65.8 µM. The IC50 was 14.3 µM in test [5]; 13.2 µM in test [6]; 11.1 µM in test [12]; 12.6 µM in test [7]; 24.4 µM in test [13]; 8.45 µM in [14]. Moreover, the IC50 in test [8] came out at 24.2 µM; in test [15], 10.1 µM; in test [16] it was 11.3 µM; in test [18], 11.5 µM.

As to `COc1ccc2c3c([nH]c2c1)C(CC(CC1=NCCc2c1[nH]c1cc(OC)ccc21)c1cc(Cl)c(O)c(OC)c1)=NCC3` [compound 9], the half-inhibitory concentration (IC50) in [1] is 35.7 µM; in test [9], 60.3 µM; in [10], 29.3 µM; in test [2], 70 µM; in [11], 30 µM; in [3], 9.76 µM. The half-maximal inhibitory concentration (IC50) in test [4] was 72.3 µM; in test [20], 79.7 µM; in [21], 54.6 µM; in test [22], 39 µM; in [23] it was 95.6 µM; in [5], 40.6 µM. Also, the half-maximal inhibitory concentration (IC50) turned out to be 16 µM in test [6]; 11.4 µM in [12]; 19.7 µM in [7]; 45.8 µM in test [13]; 12.7 µM in [14]; 52.6 µM in test [8]. The figures for the IC50 in [15], in test [16] and in [18] were 6.59 µM, 11.9 µM and 11.5 µM, respectively.

Consider `COc1ccc2c3c([nH]c2c1)C(CC(CC1=NCCc2c1[nH]c1cc(OC)ccc21)c1ccc(OC)c(Oc2ccccc2)c1)=NCC3` [compound 10], for which the 50% inhibitory concentration (IC50) in test [1] was determined as 65 µM; in test [9] it was 29.4 µM; in test [19], 79.2 µM; in test [10], 31.7 µM; in [2], 23.8 µM; in test [11], 27.6 µM. The IC50 came out at 2.78 µM in test [3]; 49.7 µM in [4]; 13.3 µM in test [20]; 64 µM in test [21]; 50.2 µM in [22]; 88.1 µM in test [23]. Further, the IC50 came out at 20.1 µM in [5]; 11.1 µM in test [6]; 4.87 µM in [12]; 35.6 µM in [7]; 43.7 µM in [13]; 11.4 µM in [14]. The IC50 in test [8] was found to be 11.9 µM; in test [15] it was 8.28 µM; in [16], 7.57 µM; in test [18], 3.98 µM.

Take `COc1ccc2c3c([nH]c2c1)C(CC(CC1=NCCc2c1[nH]c1cc(OC)ccc21)c1ccc(OC)c(O)c1Br)=NCC3` [compound 13]: the IC50 in test [1] was 11.8 µM; in test [9], 23.4 µM; in test [19] it was 91.6 µM; in [10], 7.82 µM; in test [2] it was 82.5 µM; in [11], 16.6 µM. In addition, the half-maximal inhibitory concentration (IC50) in test [3] was determined as 6.52 µM; in [4], 13.5 µM; in [20], 21.2 µM; in test [21] it was 14 µM; in [22] it was 28.5 µM; in test [23], 17.4 µM. Moreover, the IC50 in test [5] turned out to be 11.5 µM; in test [6], 13.1 µM; in test [12] it was 11.1 µM; in test [7], 12.9 µM; in test [13], 25.8 µM; in [14] it was 12.6 µM. The IC50 in test [8] worked out at 15.8 µM; in [15], 11 µM; in [16] it was 11.7 µM; in test [18], 9.1 µM.

As for `COc1ccc2c3c([nH]c2c1)C(CC(CC1=NCCc2c1[nH]c1cc(OC)ccc21)c1cccc(-c2ccccc2)c1)=NCC3` [compound 18], the half-maximal inhibitory concentration (IC50) in test [1] came to 26.3 µM; in [9], 31.2 µM; in test [19] it was 93.4 µM; in test [10], 28.8 µM; in test [2] it was 43.8 µM; in test [11] it was 36.2 µM. In addition, the half-maximal inhibitory concentration (IC50) amounted to 8.55 µM in test [3]; 49.2 µM in test [4]; 45.4 µM in [20]; 59.1 µM in [21]; 36.3 µM in test [22]; 49.8 µM in [23]. In addition, the IC50 was found to be 39.8 µM in test [5]; 33.6 µM in test [6]; 17.8 µM in test [12]; 34.8 µM in test [7]; 43.9 µM in [13]; 48.7 µM in [14]. The IC50 in test [8] came to 32.5 µM; in test [15], 12.2 µM; in test [16], 25 µM; in [18], 12.3 µM.
